Results on 24 compounds are retold here after patent US20230026271A1, “Piperazine Compounds for Inhibiting CPS1” (Eisai R&D Management Co., Ltd., priority 2019, published 2023).

This assay concerns the target T1, CPS1 (Homo sapiens, UniProt P31327).
T1 construct: The full length, human CPS1 gene was cloned into pFastBac HTA; His6 (from the pFastBac HTA vector); made in house; host or cells: SF21 insect cells (baculovirus, Bac-to-bac)
T1 sequence (P31327 39-1500): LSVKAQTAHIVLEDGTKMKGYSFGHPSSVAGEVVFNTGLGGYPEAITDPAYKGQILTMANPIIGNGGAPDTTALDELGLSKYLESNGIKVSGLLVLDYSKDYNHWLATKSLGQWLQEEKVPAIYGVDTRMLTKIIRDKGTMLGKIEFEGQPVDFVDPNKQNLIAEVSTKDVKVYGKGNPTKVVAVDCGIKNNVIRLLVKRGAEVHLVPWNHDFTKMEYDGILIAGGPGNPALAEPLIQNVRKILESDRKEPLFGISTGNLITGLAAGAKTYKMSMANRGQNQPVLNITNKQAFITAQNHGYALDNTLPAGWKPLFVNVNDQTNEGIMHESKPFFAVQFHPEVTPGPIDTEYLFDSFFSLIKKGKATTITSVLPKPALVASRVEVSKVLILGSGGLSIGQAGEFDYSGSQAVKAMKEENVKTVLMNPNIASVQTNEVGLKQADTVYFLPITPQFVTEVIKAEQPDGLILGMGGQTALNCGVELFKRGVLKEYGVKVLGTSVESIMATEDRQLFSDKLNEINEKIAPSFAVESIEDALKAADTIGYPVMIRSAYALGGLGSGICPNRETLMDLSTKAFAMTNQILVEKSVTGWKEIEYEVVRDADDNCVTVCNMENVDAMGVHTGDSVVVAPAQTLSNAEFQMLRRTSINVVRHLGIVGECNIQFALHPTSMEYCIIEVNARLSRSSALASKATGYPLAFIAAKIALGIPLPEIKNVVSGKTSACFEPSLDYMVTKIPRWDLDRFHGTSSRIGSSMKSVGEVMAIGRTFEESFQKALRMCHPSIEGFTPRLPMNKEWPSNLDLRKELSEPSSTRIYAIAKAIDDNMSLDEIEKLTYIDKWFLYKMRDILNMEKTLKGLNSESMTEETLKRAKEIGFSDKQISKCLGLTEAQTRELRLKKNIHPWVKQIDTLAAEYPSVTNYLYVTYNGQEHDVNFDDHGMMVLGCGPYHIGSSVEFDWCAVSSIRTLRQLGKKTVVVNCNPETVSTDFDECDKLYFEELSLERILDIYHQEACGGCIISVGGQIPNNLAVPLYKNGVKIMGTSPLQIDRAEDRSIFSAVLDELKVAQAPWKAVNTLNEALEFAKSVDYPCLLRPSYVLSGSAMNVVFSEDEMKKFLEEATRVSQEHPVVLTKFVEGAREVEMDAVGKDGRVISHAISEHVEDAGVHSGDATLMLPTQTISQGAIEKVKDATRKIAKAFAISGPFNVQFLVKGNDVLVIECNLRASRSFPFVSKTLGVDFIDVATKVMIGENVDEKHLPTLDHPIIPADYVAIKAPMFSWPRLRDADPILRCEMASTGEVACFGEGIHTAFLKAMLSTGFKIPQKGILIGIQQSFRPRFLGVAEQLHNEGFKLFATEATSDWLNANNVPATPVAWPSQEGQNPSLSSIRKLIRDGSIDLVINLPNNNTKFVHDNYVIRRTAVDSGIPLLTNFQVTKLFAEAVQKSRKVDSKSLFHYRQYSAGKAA
The assay can be described thus: ADP-Glo endpoint assay measuring the ATPase activity of CPS1. The assay is classed as biochemical. Conditions: geometric mean of a minimum of two values; 50 nM CPS1, 10 μM ATP, 0.2 mM NAG, 60 min at room temperature; read-out: ADPGlo IC50. The method, boiled down:
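Full-length human His-tagged CPS1 from SF21 insect cells, 50 nM, preincubated 20 min with compound in pH 7.0 HEPES buffer containing KHCO3, (NH4)2SO3, MgCl2 and 0.2 mM NAG. Reaction started with 10 μM ATP, 60 min at room temperature; ADP formed detected by ADP-Glo luminescence.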

As to `COc1ccc(C(=O)N2C[C@@H](C)N(C(=O)c3ccc(OC)c(C)c3)[C@H](C)C2)c(F)c1` [Compound 79, ((2R,6R)-4-(2-fluoro-4-methoxybenzoyl)-2,6-dimethylpiperazin-1-yl)(4-methoxy-3-methylphenyl)methanone], the IC50 came to 22.2 µM.

Turning to `COc1ccc(C(=O)N2C[C@@H](C)N(C(=O)c3ccc(-c4ccn(C)n4)cc3)[C@H](C)C2)c(F)c1` [Compound 80, ((3R,5R)-3,5-dimethyl-4-(4-(1-methyl-1H-pyrazol-3-yl)benzoyl)piperazin-1-yl)(2-fluoro-4-methoxyphenyl)methanone], the half-maximal inhibitory concentration (IC50) was 22.9 µM.

In the case of `COc1ccc(C(=O)N2[C@H](C)CN(C(=O)c3c(C)cc(OC)cc3F)C[C@H]2C)c(F)c1` [Compound 81, ((2R,6R)-4-(2-fluoro-4-methoxy-6-methylbenzoyl)-2,6-dimethylpiperazin-1-yl)(2-fluoro-4-methoxyphenyl)methanone], the IC50 was 25.8 µM.

For the compound `COc1ccc(C(=O)N2[C@H](C)CN(C(=O)c3cc4c(OC)ccc(OC)c4[nH]3)C[C@H]2C)c(F)c1` [Compound 82, (4,7-dimethoxy-1H-indol-2-yl)((3R,5R)-4-(2-fluoro-4-methoxybenzoyl)-3,5-dimethylpiperazin-1-yl)methanone], the IC50 was 26.4 µM.

For the compound `COc1ccc(C(=O)N2[C@H](C)CN(C(=O)c3ccc4ccn(C)c4c3)C[C@H]2C)c(F)c1` [Compound 83, ((2R,6R)-2,6-dimethyl-4-(1-methyl-1H-indole-6-carbonyl)piperazin-1-yl)(2-fluoro-4-methoxyphenyl)methanone], the concentration for half-maximal inhibition (IC50) stood at 31 µM.

For `COc1ccc(OC)c2[nH]c(C(=O)N3[C@H](C)CN(C(=O)Cc4cc5ccccc5[nH]4)C[C@H]3C)cc12` [Compound 84, 1-((3R,5R)-4-(4,7-dimethoxy-1H-indole-2-carbonyl)-3,5-dimethylpiperazin-1-yl)-2-(1H-indol-2-yl)ethanone], the IC50 turned out to be 32.1 µM.

`COc1ccc(C(=O)N2C[C@@H](C)N(C(=O)c3cccc(O)c3)[C@H](C)C2)c(F)c1` [Compound 85, ((2R,6R)-4-(2-fluoro-4-methoxybenzoyl)-2,6-dimethylpiperazin-1-yl)(3-hydroxyphenyl)methanone]: the half-inhibitory concentration (IC50) was determined as 34.1 µM.

As for `COc1ccc(C(=O)N2CCN(C(=O)c3ccc(OC)cc3F)C(C)C2C)c(F)c1` (stereo not drawn) [Compound 86, (2,3-dimethylpiperazine-1,4-diyl)bis((2-fluoro-4-methoxyphenyl)methanone)], the half-maximal inhibitory concentration (IC50) was 36.1 µM.

Consider `COc1ccc(C(=O)N2[C@H](C)CN(C(=O)c3c[nH]c4ccc(F)cc34)C[C@H]2C)c(F)c1` [Compound 87, (5-fluoro-1H-indol-3-yl)((3R,5R)-4-(2-fluoro-4-methoxybenzoyl)-3,5-dimethylpiperazin-1-yl)methanone], for which the IC50 was determined as 37.7 µM.

On to `COc1ccc(C(=O)N2[C@H](C)CN(C(=O)Cc3n[nH]c4ccccc34)C[C@H]2C)c(F)c1` [Compound 88, 1-((3R,5R)-4-(2-fluoro-4-methoxybenzoyl)-3,5-dimethylpiperazin-1-yl)-2-(1H-indazol-3-yl)ethanone], for which the half-inhibitory concentration (IC50) amounted to 38.2 µM.

In the case of `COc1ccc(C(=O)N2[C@H](C)CN(C(=O)Cc3c[nH]c4cccnc34)C[C@H]2C)c(F)c1` [Compound 89, 1-((3R,5R)-4-(2-fluoro-4-methoxybenzoyl)-3,5-dimethylpiperazin-1-yl)-2-(1H-pyrrolo[3,2-b]pyridin-3-yl)ethanone], the IC50 was 42.7 µM.

Regarding `COc1ccc(C(=O)N2C[C@@H](C)N(C(=O)c3ccc(-c4nnn[nH]4)cc3)[C@H](C)C2)c(F)c1` [Compound 90, ((3R,5R)-4-(4-(1H-tetrazol-5-yl)benzoyl)-3,5-dimethylpiperazin-1-yl)(2-fluoro-4-methoxyphenyl)methanone], the half-maximal inhibitory concentration (IC50) was 45 µM.

As to `COc1ccc(OC)c2[nH]c(C(=O)N3C[C@@H](C)N(C(=O)Cc4cc5ccccc5[nH]4)[C@H](C)C3)cc12` [Compound 91, 1-((2R,6R)-4-(4,7-dimethoxy-1H-indole-2-carbonyl)-2,6-dimethylpiperazin-1-yl)-2-(1H-indol-2-yl)ethanone], the IC50 was more than 66.7 µM.

Take `COc1ccc(C(=O)N2[C@H](C)CN(C(=O)c3cccc(OC)c3F)C[C@H]2C)c(F)c1` [Compound 92, ((2R,6R)-4-(2-fluoro-3-methoxybenzoyl)-2,6-dimethylpiperazin-1-yl)(2-fluoro-4-methoxyphenyl)methanone]: the IC50 is more than 66.7 µM.

For `COc1ccc(C(=O)N2C[C@@H](C)N(C(=O)c3ccc(NC(C)=O)cc3F)[C@H](C)C2)c(F)c1` [Compound 93, N-(3-fluoro-4-((2R,6R)-4-(2-fluoro-4-methoxybenzoyl)-2,6-dimethylpiperazine-1-carbonyl)phenyl)acetamide], the 50% inhibitory concentration (IC50) is more than 66.7 µM.

With `COc1ccc(C(=O)N2C[C@@H](C)N(C(=O)c3ccc(OC)cc3Cl)[C@H](C)C2)c(F)c1` [Compound 94, ((3R,5R)-4-(2-chloro-4-methoxybenzoyl)-3,5-dimethylpiperazin-1-yl)(2-fluoro-4-methoxyphenyl)methanone], the 50% inhibitory concentration (IC50) is more than 66.7 µM.

Turning to `COc1ccc(C(=O)N2C[C@@H](C)N(C(=O)c3c(F)cc(OC)cc3F)[C@H](C)C2)c(F)c1` [Compound 95, ((3R,5R)-4-(2,6-difluoro-4-methoxybenzoyl)-3,5-dimethylpiperazin-1-yl)(2-fluoro-4-methoxyphenyl)methanone], the IC50 was more than 66.7 µM.

`COc1ccc(C(=O)N2[C@H](C)CN(C(=O)c3cc(OC)ccc3F)C[C@H]2C)c(F)c1` [Compound 96, ((3R,5R)-4-(2-fluoro-4-methoxybenzoyl)-3,5-dimethylpiperazin-1-yl)(2-fluoro-5-methoxyphenyl)methanone]: the 50% inhibitory concentration (IC50) is more than 66.7 µM.

`COc1ccc(C(=O)N2[C@@H](C)CN(C(=O)c3cc(OC)ccc3F)C[C@@H]2C)c(F)c1` [Compound 97, ((3S,5S)-4-(2-fluoro-4-methoxybenzoyl)-3,5-dimethylpiperazin-1-yl)(2-fluoro-5-methoxyphenyl)methanone]: the concentration for half-maximal inhibition (IC50) was more than 66.7 µM.

For the compound `COc1ccc(C(=O)N2[C@H](C)CN(C(=O)c3c[nH]c4ccc(O)cc34)C[C@H]2C)c(F)c1` [Compound 98, ((3R,5R)-4-(2-fluoro-4-methoxybenzoyl)-3,5-dimethylpiperazin-1-yl)(5-hydroxy-1H-indol-3-yl)methanone], the IC50 is more than 66.7 µM.

Regarding `COc1ccc(C(=O)N2C[C@@H](C)N(C(=O)c3ccc4ccn(C)c4c3)[C@H](C)C2)c(F)c1` [Compound 99, ((3R,5R)-3,5-dimethyl-4-(1-methyl-1H-indole-6-carbonyl)piperazin-1-yl)(2-fluoro-4-methoxyphenyl)methanone], the half-maximal inhibitory concentration (IC50) is more than 66.7 µM.

On to `COc1ccc(C(=O)N2[C@H](C)CN(C(=O)c3ccc(OC)cc3OC)C[C@H]2C)c(F)c1` [Compound 100, ((2R,6R)-4-(2,4-dimethoxybenzoyl)-2,6-dimethylpiperazin-1-yl)(2-fluoro-4-methoxyphenyl)methanone], for which the IC50 was more than 66.7 µM.

Turning to `COc1ccc(C(=O)N2[C@H](C)CN(C(=O)c3cc(OC)c(OC)cc3F)C[C@H]2C)c(F)c1` [Compound 101, ((2R,6R)-4-(2-fluoro-4,5-dimethoxybenzoyl)-2,6-dimethylpiperazin-1-yl)(2-fluoro-4-methoxyphenyl)methanone], the IC50 was more than 66.7 µM.

For the compound `COc1ccc(C(=O)N2[C@H](C)CN(C(=O)c3ccc(S(C)(=O)=O)cc3F)C[C@H]2C)c(F)c1` [Compound 102, ((2R,6R)-4-(2-fluoro-4-(methylsulfonyl)benzoyl)-2,6-dimethylpiperazin-1-yl)(2-fluoro-4-methoxyphenyl)methanone], the IC50 was more than 66.7 µM.
